From patent US10682316B2 (NOVA SOUTHEASTERN UNIVERSITY, priority 2010, dated 2020) come the findings set out here.

SMILES strings stand for the structures. Where “and” joins values, the source holds several entries; their conditions need not be identical. Equal values may be shown once. Entries after “also recorded” stand apart in the source; their conditions may differ. Read-outs that look alike come from different tables or passages of the source.

Series [1] in a line: Particle size measurement before and after size reduction (Mastersizer, NiComp 370, Zetasizer). It counts as physicochemical. The note with it: epinephrine base. How it is done:
These techniques involve the use of oversaturated solutions of various solvents, particularly water and isopropanol, at various temperatures and pressures ranging from about 8,000 psi to 30,000 psi and to about 8.3° to 43.3° C. under various passes. […] The particles were lyophilized (freeze-dried) using a bench top lyophilizer (ART Inc.).

A short description of series [2]: Visual observation of discoloration/stability after processing. It counts as physicochemical. To be noted: epinephrine bitartrate compared with epinephrine base. The text has this: The main problem was discoloration (a brown color formed) due to degradation.

In the case of `CNC[C@H](O)c1ccc(O)c(O)c1` [Epinephrine Base, epinephrine], the “Amount Dissolved %” value (solubility in water) is on record as 2.67%. Further, in series [1] (Mastersizer (FIG. 3)), the “mean±SD size before size reduction” value stood at 32.91±0.33 μm. Also, in series [1] (Mastersizer, three measurements and mean), the “Size Before Fabrication (nm)” value was 33030 nm and 32530 nm and 33160 nm.
For `CNC[C@H](O)c1ccc(O)c(O)c1` [Epinephrine Bit, epinephrine bitartrate], the “Amount Dissolved %” value was found to be 1.56% (solubility in acetone); 0.77% (solubility in acetonitrile); 0.09% (solubility in choloroform); 0.00% (solubility in dichloromethane (DCM)); 0.63% (solubility in ethyl acetate); 0.03% (solubility in hexane). Also, the “Amount Dissolved %” value is listed as 0.62% (solubility in isopropyl alcohol), 10.45% (solubility in methanol) and 7.76% (solubility in tetrahydrofuran (THF)). Also, in series [2], the “Stability / discoloration under fabrication conditions (nanomilling)” value is reported as “more stable than the epinephrine base; also recorded: did not show any discoloration”.
